Literature values, collected in patent US7241583B2, “TRL1 as an antifungal target” (Oxford Glycosciences (UK) Ltd, priority 2002, dated 2007).

Details: mice; DOX 2 mg/ml in 5% sucrose solution as drinking water, approx. 5 ml per day

concentration of DOX in kidney: > 10 mg/g of kidney
concentration of DOX in liver: > 8 mg/g of liver
concentration of DOX in serum: more than 2 mg/ml of serum
SMILES: C[C@H]1c2cccc(O)c2C(O)=C2C(=O)[C@]3(O)C(O)=C(C(N)=O)C(=O)[C@@H](N(C)C)[C@@H]3[C@@H](O)[C@@H]21 [DOX, doxycycline]
